Test results reported in patent US20160200733A1, “SUBSTITUTED THIENO[2,3-B]PYRIDINE-2-CARBOXAMIDE ANALOGS AS POSITIVE ALLOSTERIC MODULATORS OF THE MUSCARINIC ACETYLCHOLINE RECEPTOR M4” (Vanderbilt University, priority 2013, published 2016).

Target: T1, mAChR hM4 (Homo sapiens, UniProt P08173)
T1 construct: expressed in transfected cells; host or cells: CHO-K1 (Chinese hamster ovary) cells
T1 sequence (P08173 1-479): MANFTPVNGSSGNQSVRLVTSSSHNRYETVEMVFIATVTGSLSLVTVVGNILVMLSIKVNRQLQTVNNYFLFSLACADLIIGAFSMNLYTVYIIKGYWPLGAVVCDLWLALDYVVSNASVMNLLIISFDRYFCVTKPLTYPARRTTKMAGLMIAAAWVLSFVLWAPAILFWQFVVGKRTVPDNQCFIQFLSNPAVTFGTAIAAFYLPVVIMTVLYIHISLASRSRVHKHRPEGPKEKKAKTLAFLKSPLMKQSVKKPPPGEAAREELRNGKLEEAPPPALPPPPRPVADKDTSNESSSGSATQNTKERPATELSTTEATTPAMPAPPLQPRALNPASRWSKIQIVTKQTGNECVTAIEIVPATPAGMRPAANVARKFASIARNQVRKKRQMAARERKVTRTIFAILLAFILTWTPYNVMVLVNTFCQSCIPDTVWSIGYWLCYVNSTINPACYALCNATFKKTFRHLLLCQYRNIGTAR
Assay: mAChR M4 cell-based functional assay (calcium flux, potentiation of EC20 acetylcholine response)
Conditions: mAChR hM4 cell-line; for Emax at 30 µM: % ACh maximum at 30 μM; for EC50: >10,000 estimated for low potency compounds lacking a plateau
Text: In one aspect, the disclosed compounds potentiate the agonist response (e.g., acetylcholine) of mAChR M4. In a further aspect, the disclosed compounds increase mAChR M4 response to non-maximal concentrations of agonist in the presence of compound compared to the response to agonist in the absence of compound. […] For example, activation of mAChR M4 activity can be determined by measurement of calcium flux in response to agonist, e.g. acetylcholine, in cells loaded with a Ca^2+-sensitive fluorescent dye (e.g., Fluo-4). In a further aspect, the calcium flux was measured as an increase in fluorescent static ratio. In a yet further aspect, positive allosteric modulator activity was analyzed as a concentration-dependent increase in the EC20 acetylcholine response (i.e. the response of mAChR M4 at a concentration of acetylcholine that yields 20% of the maximal response).
In one aspect, the disclosed compounds activate mAChR M4 response as an increase in calcium fluorescence in mAChR M4-transfected CHO-K1 cells in the presence of the compound, compared to the response of equivalent CHO-K1 cells in the absence of the compound. […] In a further aspect, the mAChR M4-transfected CHO-K1 cells are transfected with human mAChR M4. In a still further aspect, the mAChR M4-transfected CHO-K1 cells are transfected with rat mAChR M4.
Substituted 3-aminothieno[2,3-c]pyridine-2-carboxamide analogs were synthesized as described above. Activity (EC50 and Emax) was determined in the mAChR M4 cell-based functional assay as described above, and the data are shown in Table II for assays conducted using mAChR hM4 cell-line. The compound number corresponds to the compound numbers used in Table I.

| Emax at 30 µM | EC50 | Structure (SMILES) |
| --- | --- | --- |
| – | > 10 µM | Cc1cc(C)c2c(Br)c(C(=O)N3Cc4ccccc4C3)sc2n1 [Compound 5, (3-bromo-4,6-dimethylthieno[2,3-b]pyridin-2-yl)(isoindolin-2-yl)methanone] |
| – | > 10 µM | Cc1cc(C)c2c(Br)c(C(=O)NCC(C)C)sc2n1 [Compound 11, 3-bromo-N-isobutyl-4,6-dimethylthieno[2,3-b]pyridine-2-carboxamide] |
| 53% | 2.4 µM | COc1ccc(CNC(=O)c2sc3nc(C)cc(C)c3c2C)cc1 [Compound 17, N-(4-methoxybenzyl)-3,4,6-trimethylthieno[2,3-b]pyridine-2-carboxamide] |
| 38% | 2.6 µM | Cc1cc(C)c2c(C)c(C(=O)NCc3ccc4c(c3)CCO4)sc2n1 [Compound 20, N-((2,3-dihydrobenzofuran-5-yl)methyl)-3,4,6-trimethylthieno[2,3-b]pyridine-2-carboxamide] |
| – | > 10 µM | Cc1cc(C)c2c(C)c(C(=O)NCc3ccc(OC(F)(F)F)cc3)sc2n1 [Compound 21, 3,4,6-trimethyl-N-(4-(trifluoro-methoxy)benzyl)thieno[2,3-b]pyridine-2-carboxamide] |
| 60% | > 10 µM | Cc1cc(C)c2c(C)c(C(=O)N[C@@H]3CCOC3)sc2n1 [Compound 25, (R)-3,4,6-trimethyl-N-(tetrahydrofuran-3-yl)thieno[2,3-b]pyridine-2-carboxamide] |
| 49% | 2.2 µM | CSc1ccc(CNC(=O)c2sc3nc(C)cc(C)c3c2C)cc1 [Compound 27, 3,4,6-trimethyl-N-(4-(methylthio)benzyl)thieno[2,3-b]pyridine-2-carboxamide] |
| – | > 10 µM | COc1ccc2c(c1)CCN(C(=O)c1sc3nc(C)cc(C)c3c1C)C2 [Compound 28, (6-methoxy-3,4-dihydroisoquinolin-2(1H)-yl)(3,4,6-trimethylthieno[2,3-b]pyridin-2-yl)methanone] |
| – | > 10 µM | Cc1cc(C)c2c(C#N)c(C(=O)NCc3ccc(S(C)(=O)=O)cc3)sc2n1 [Compound 33, 3-cyano-4,6-dimethyl-N-(4-(methylsulfonyl)benzyl)thieno[2,3-b]pyridine-2-carboxamide] |
| – | > 10 µM | Cc1cc(C)c2c(-c3ccccc3)c(C(=O)NCc3ccc(S(C)(=O)=O)cc3)sc2n1 [Compound 34, 4,6-dimethyl-N-(4-(methylsulfonyl)benzyl)-3-phenylthieno[2,3-b]pyridine-2-carboxamide] |
| – | > 10 µM | Cc1cc(C)c2c(-c3cnn(C)c3)c(C(=O)NCc3ccc(S(C)(=O)=O)cc3)sc2n1 [Compound 36, 4,6-dimethyl-3-(1-methyl-1H-pyrazol-4-yl)-N-(4-(methylsulfonyl)benzyl)thieno[2,3-b]pyridine-2-carboxamide] |

Continued, molecule first:

| Structure (SMILES) | Emax at 30 µM | EC50 |
| --- | --- | --- |
| Cc1cc(C)c2c(Br)c(C(=O)NC3CC3)sc2n1 [Compound 4, 3-bromo-N-cyclopropyl-4,6-dimethylthieno[2,3-b]pyridine-2-carboxamide] | 49% | 4.8 µM |
| Cc1cc(C)c2c(Br)c(C(=O)NC3CCC3)sc2n1 [Compound 6, 3-bromo-N-cyclobutyl-4,6-dimethylthieno[2,3-b]pyridine-2-carboxamide] | 41% | > 10 µM |
| Cc1cc(C)c2c(Br)c(C(=O)NC3CCOC3)sc2n1 (stereo not drawn) [Compound 7, 3-bromo-4,6-dimethyl-N-(tetrahydrofuran-3-yl)thieno[2,3-b]pyridine-2-carboxamide] | – | > 10 µM |
| Cc1cc(C)c2c(Br)c(C(=O)NC3(C)COC3)sc2n1 [Compound 8, 3-bromo-4,6-dimethyl-N-(3-methyloxetan-3-yl)thieno[2,3-b]pyridine-2-carboxamide] | 59% | 3.7 µM |
| Cc1cc(C)c2c(Br)c(C(=O)NCc3cccnc3)sc2n1 [Compound 9, 3-bromo-4,6-dimethyl-N-(pyridin-3-ylmethyl)thieno[2,3-b]pyridine-2-carboxamide] | 33% | 3 µM |
| COc1ccc(CNC(=O)c2sc3nc(C)cc(C)c3c2Br)cc1 [Compound 10, 3-bromo-N-(4-methoxybenzyl)-4,6-dimethylthieno[2,3-b]pyridine-2-carboxamide] | – | > 10 µM |
| Cc1cc(C)c2c(Br)c(C(=O)NC3CCOCC3)sc2n1 [Compound 12, 3-bromo-4,6-dimethyl-N-(tetrahydro-2H-pyran-4-yl)thieno[2,3-b]pyridine-2-carboxamide] | – | > 10 µM |
| Cc1cc(C)c2c(Br)c(C(=O)NCC3CC3)sc2n1 [Compound 13, 3-bromo-N-(cyclopropylmethyl)-4,6-dimethylthieno[2,3-b]pyridine-2-carboxamide] | 29% | > 10 µM |
| Cc1cc(C)c2c(Br)c(C(=O)N3CCOCC3)sc2n1 [Compound 14, (3-bromo-4,6-dimethylthieno[2,3-b]pyridin-2-yl)(morpholino)methanone] | – | > 10 µM |
| COc1ccc(CNC(=O)c2cc3c(C)cc(C)nc3s2)cc1 [Compound 15, N-(4-methoxybenzyl)-4,6-dimethylthieno[2,3-b]pyridine-2-carboxamide] | 55% | 4 µM |
| COc1ccc(CNC(=O)c2sc3nc(C)cc(C)c3c2I)cc1 [Compound 16, 3-iodo-N-(4-methoxybenzyl)-4,6-dimethylthieno[2,3-b]pyridine-2-carboxamide] | 51% | 2.6 µM |
| Cc1cc(C)c2c(C)c(C(=O)NC3CC3)sc2n1 [Compound 18, N-cyclopropyl-3,4,6-trimethylthieno[2,3-b]pyridine-2-carboxamide] | 73% | > 10 µM |
| Cc1cc(C)c2c(C)c(C(=O)NCc3ccc(S(C)(=O)=O)cc3)sc2n1 [Compound 19, 3,4,6-trimethyl-N-(4-(methylsulfonyl)benzyl)thieno[2,3-b]pyridine-2-carboxamide] | 62% | 4.2 µM |
| Cc1cc(C)c2c(C)c(C(=O)NC3CCOC3)sc2n1 (stereo not drawn) [Compound 22, 3,4,6-trimethyl-N-(tetrahydrofuran-3-yl)thieno[2,3-b]pyridine-2-carboxamide] | 67% | > 10 µM |
| Cc1cc(C)c2c(C)c(C(=O)N3CCCC(F)(F)C3)sc2n1 [Compound 23, (3,3-difluoropiperidin-1-yl)(3,4,6-trimethylthieno[2,3-b]pyridin-2-yl)methanone] | – | > 10 µM |
| Cc1cc(C)c2c(C)c(C(=O)N3CCCC3)sc2n1 [Compound 24, pyrrolidin-1-yl(3,4,6-trimethylthieno[2,3-b]pyridin-2-yl)methanone] | – | > 10 µM |
| Cc1cc(C)c2c(C)c(C(=O)NC3CCOCC3)sc2n1 [Compound 26, 3,4,6-trimethyl-N-(tetrahydro-2H-pyran-4-yl)thieno[2,3-b]pyridine-2-carboxamide] | 44% | > 10 µM |
| COc1ccc(C(C)NC(=O)c2sc3nc(C)cc(C)c3c2C)cc1 (stereo not drawn) [Compound 29, N-(1-(4-methoxyphenyl)ethyl)-3,4,6-trimethylthieno[2,3-b]pyridine-2-carboxamide] | – | > 10 µM |
| Cc1cc(C)c2c(C)c(C(=O)NCCN3CCOCC3)sc2n1 [Compound 30, 3,4,6-trimethyl-N-(2-morpholinoethyl)thieno[2,3-b]pyridine-2-carboxamide] | – | > 10 µM |
| Cc1cc(C)c2c(C)c(C(=O)NCc3ccc4c(c3)OCCO4)sc2n1 [Compound 31, N-((2,3-dihydrobenzo[b][1,4]dioxin-6-yl)methyl)-3,4,6-trimethylthieno[2,3-b]pyridine-2-carboxamide] | 57% | 2.2 µM |
| Cc1cc(C)c2c(Br)c(C(=O)NCc3ccc(S(C)(=O)=O)cc3)sc2n1 [Compound 32, 3-bromo-4,6-dimethyl-N-(4-(methylsulfonyl)benzyl)thieno[2,3-b]pyridine-2-carboxamide] | – | > 10 µM |
| Cc1cc(C)c2cc(C(=O)NCc3ccc(S(C)(=O)=O)cc3)sc2n1 [Compound 35, 4,6-dimethyl-N-(4-(methylsulfonyl)benzyl)thieno[2,3-b]pyridine-2-carboxamide] | 41% | > 10 µM |
| Cc1cc(C)c2c(Br)c(C(=O)N(C)Cc3ccc(S(C)(=O)=O)cc3)sc2n1 [Compound 37, 3-bromo-N,4,6-trimethyl-N-(4-(methylsulfonyl)benzyl)thieno[2,3-b]pyridine-2-carboxamide] | – | > 10 µM |
